In US8222425B2, “Organic compounds and their uses” (Novartis AG, priority 2007, dated 2012):
In brackets after ≈: the same amount, converted by molar mass. Like-named read-outs stand apart in the source and are kept apart here.

Experiments:
Thermodynamic solubility = type: physicochemical; details: thermodynamic from solid
Description: Thermodynamic solubility for the compounds of the invention listed in Table C is measured by a published literature procedure, e.g., Liping Zhou, et al., J. Pharm. Sci. (2007) 96(11): 3052-3071.
The DMSO stocks of test compounds previously dissolved in 25 μL of DMSO (˜10 mM) in mini-prep vial (MPV: Whatman, with PVDF filter and 0.45 μm pore size) chamber were evaporated via a GeneVac HT-4X evaporator for approximately 1 hour, at the guard temperature of 30° C. An aliquot of 250 μL buffer solution (pH 1.0 or 6.8) was added into each MPV chamber containing powders reconstituted from DMSO stock solutions. The MPV filter plungers were pushed down into the chamber until the membrane of the filter plunger slightly touched the surface of the buffer to promote equilibrium between the two compartments and to minimize the adsorption due to non-specific binding of samples during the subsequent 24-hr incubation (at 600 RPM at room temperature). Immediately after the 24-hr incubation, the plungers were further pushed down to the bottom of the chambers. More solution was pushed through the membrane and entered the plunger compartment. The filter/chamber assemblies were then put on a shaker for another 30 minutes at 600 RPM. Afterwards, filtrates were further diluted (1:10) with 50/50 acetonitrile/water solvent followed by a thorough mixing process. Both plates with diluted and undiluted filtrates were analyzed by HPLC and quantified against the four-point standard dilution curve of the same test compound (5 μM, 35 μM, 65 μM and 100 μM, respectively). In the current study, solubility reflects the average of triplicate samples tested at each pH.

[1] = Pharmacokinetic profile in rats; design: species or system Sprague Dawley rats; details: rat, in vivo; for Cmax: Sprague Dawley; for Cmax / AUC: po, 10 mg/kg
Description: Compounds listed in Table D are administered as a solution orally via gavage at 10 mg/kg to Sprague Dawley rats at a dosing volume of 10 ml/kg. Samples are collected via a surgically implanted cannula at selected timepoints deemed necessary to characterize pharmacokinetic parameters. Blood samples are placed on wet ice and spun down to plasma within 5 minutes of timepoint collection. Plasma samples are frozen until bioanalytical analysis. Compounds listed in Table D are administered intravenously into a surgically implanted cannula as a solution at 1 mg/kg to Sprague Dawley rats at a dosing volume of 1 ml/kg. Samples are collected via another surgically implanted cannula at selected timepoints deemed necessary to characterize pharmacokinetic parameters. Blood samples are placed on wet ice and spun down to plasma within 5 minutes of timepoint collection. Plasma samples are frozen until bioanalytical analysis.

HCV = details: ribavirin alone; cited from earlier work

| Structure (SMILES) | solubility at 24 h (Thermodynamic solubility; pH 1, simulated gastric fluid) [µM] | solubility at 24 h (Thermodynamic solubility; pH 6.8, aqueous buffer) [µM] | Cmax [1] [nM] | AUC [1] [nM·h/mg/kg] | also measured |
| --- | --- | --- | --- | --- | --- |
| CCCC(NC(=O)[C@@H]1C[C@@]2(CN1C(=O)[C@@H](NC(=O)[C@@H](NC(=O)[C@@H]1CCCN(C(C)C)C1)C1CCCCC1)C(C)(C)C)C(C)(C)C21CCC1)C(=O)C(=O)NC1CC1 (stereo in doubt) [Compound A-4] | 630 (≈ 492 µg/mL) | 200 (≈ 156 µg/mL) | – | – | – |
| CCC[C@H](NC(=O)[C@@H]1C[C@@]2(CN1C(=O)[C@@H](NC(=O)[C@@H](NC(=O)[C@H]1CCCCN1C(C)C)C1CCCCC1)C(C)(C)C)C(C)(C)C21CCC1)C(=O)C(=O)NC1CC1 [Compound A-5] | 480 (≈ 375 µg/mL) | 44 (≈ 34.4 µg/mL) | – | – | – |
| CCC[C@H](NC(=O)[C@@H]1C[C@@]2(CN1C(=O)[C@@H](NC(=O)[C@@H](NC(=O)[C@@H]1CCCCN1C(C)C)C1CCCCC1)C(C)(C)C)C(C)(C)C21CCC1)C(=O)C(=O)NC1CC1 [Compound A-6] | 930 (≈ 726 µg/mL) | < 5 | – | – | – |
| C=C[C@@H]1C[C@]1(NC(=O)[C@@H]1C[C@@]2(CN1C(=O)[C@@H](NC(=O)[C@@H](NC(=O)[C@@H]1CCCCN1C(C)C)C(C)(C)C)C(C)(C)C)C(C)(C)C21CCC1)C(=O)NS(=O)(=O)C1CC1 [Compound A-7] | – | – | – | – | solubility at 24 h (Thermodynamic solubility; aqueous buffer, thermodynamic solubility, buffer pH 6.8, 24-hr incubation at room temperature, read-out: Solubility (pH 6.8)): 840 µM (≈ 673 µg/mL); solubility at 24 h (Thermodynamic solubility; simulated gastric fluid, thermodynamic solubility, buffer pH 1.0, 24-hr incubation at room temperature, read-out: Solubility (pH 1)): 900 µM (≈ 721 µg/mL) |
| CCC[C@H](NC(=O)C1C[C@@]2(CN1C(=O)[C@@H](NC(=O)[C@@H](NC(=O)[C@@H]1CCCN1CC)C1CCCCC1)C(C)(C)C)C(C)(C)C21CCC1)C(=O)C(=O)NC1CC1 (stereo partly shown) [Compound A-10] | 910 (≈ 685 µg/mL) | 24 (≈ 18.1 µg/mL) | 1470 | 460 | Bioavailability [1]: 46 % F |
| CCC[C@H](NC(=O)C1C[C@@]2(CN1C(=O)[C@@H](NC(=O)[C@@H](NC(=O)[C@H]1CCCN1CC)C1CCCCC1)C(C)(C)C)C(C)(C)C21CCC1)C(=O)C(=O)NC1CC1 (stereo partly shown) [Compound A-11] | 870 (≈ 655 µg/mL) | 92 (≈ 69.3 µg/mL) | – | – | – |
| CCC[C@H](NC(=O)[C@@H]1C[C@@]2(CN1C(=O)[C@@H](NC(=O)[C@@H](NC(=O)[C@@H]1CCCN(CC)C1)C1CCCCC1)C(C)(C)C)C(C)(C)C21CCC1)C(=O)C(=O)NC1CC1 [Compound A-15] | 700 (≈ 537 µg/mL) | 170 (≈ 130 µg/mL) | 2030 | 474 | Bioavailability [1]: 42 % F |
| CCC[C@H](NC(=O)[C@@H]1C[C@@]2(CN1C(=O)[C@@H](NC(=O)[C@@H](NC(=O)[C@@H]1CCCN1C)C1CCCCC1)C(C)(C)C)C(C)(C)C21CCC1)C(=O)C(=O)NC1CC1 [Compound A-33] | 790 (≈ 584 µg/mL) | 110 (≈ 81.3 µg/mL) | – | – | – |
| CCC[C@H](NC(=O)[C@@H]1C[C@@]2(CN1C(=O)[C@@H](NC(=O)[C@@H](NC(=O)[C@@H]1CN(C)CCN1C(C)C)C1CCCCC1)C(C)(C)C)C(C)(C)C21CCC1)C(=O)C(=O)NC1CC1 [Compound A-43] | 640 (≈ 510 µg/mL) | 290 (≈ 231 µg/mL) | – | – | – |
| CCC[C@H](NC(=O)[C@@H]1C[C@@]2(CN1C(=O)[C@@H](NC(=O)[C@@H](NC(=O)[C@@H]1CCCCN1C(C)C)C(C)(C)C)C(C)(C)C)C(C)(C)C21CCC1)C(=O)C(=O)NC1CC1 [Compound A-44] | 690 (≈ 521 µg/mL) | 64 (≈ 48.3 µg/mL) | 1110 | 523 | Bioavailability [1]: 43 % F |
| CCC[C@H](NC(=O)[C@@H]1C[C@@]2(CN1C(=O)[C@@H](NC(=O)[C@@H](NC(=O)[C@@H]1CCCCN1C(C)C)C(C)(C)C)C1CCCCC1)C(C)(C)C21CCC1)C(=O)C(=O)NC1CC1 [Compound A-45] | 720 (≈ 562 µg/mL) | < 5 | – | – | – |
| CCC[C@H](NC(=O)[C@@H]1C[C@@]2(CN1C(=O)[C@@H](NC(=O)[C@@H](NC(=O)[C@@H]1CCCN(C)C1)C1CCCCC1)C(C)(C)C)C(C)(C)C21CCC1)C(=O)C(=O)NC1CC1 [Compound A-50] | 830 (≈ 625 µg/mL) | 240 (≈ 181 µg/mL) | – | – | – |
| CCC[C@H](NC(=O)[C@@H]1C[C@@]2(CN1C(=O)[C@@H](NC(=O)[C@@H](NC(=O)[C@@H]1CCCCN1C(C)C)C1CCCCC1)C(C)(C)C)C(C)(C)C21CCC1)C(=O)C(=O)NC(C)C [Compound A-54] | 790 (≈ 619 µg/mL) | 28 (≈ 21.9 µg/mL) | 1430 | 416 | Bioavailability [1]: 28 % F |
| CCC[C@H](NC(=O)[C@@H]1C[C@@]2(CN1C(=O)[C@@H](NC(=O)[C@@H](NC(=O)[C@@H]1CCCN(C)C1)C(C)(C)C)C(C)(C)C)C(C)(C)C21CCC1)C(=O)C(=O)NC1CC1 [Compound A-58] | 960 (≈ 698 µg/mL) | 930 (≈ 676 µg/mL) | – | – | – |
| CCC[C@H](NC(=O)[C@@H]1C[C@@]2(CN1C(=O)[C@@H](NC(=O)[C@@H](NC(=O)[C@H]1CCCN(CC)C1)C(C)(C)C)C(C)(C)C)C(C)(C)C21CCC1)C(=O)C(=O)NC1CC1 [Compound A-59] | 840 (≈ 622 µg/mL) | 550 (≈ 408 µg/mL) | 653 | 203 | – |
| CCC[C@H](NC(=O)[C@@H]1C[C@@]2(CN1C(=O)[C@@H](NC(=O)[C@@H](NC(=O)[C@@H]1CCN1C(C)C)C1CCCCC1)C(C)(C)C)C(C)(C)C21CCC1)C(=O)C(=O)NC1CC1 [Compound A-62] | 930 (≈ 700 µg/mL) | < 5 | 796 | 241 | Bioavailability [1]: 36 % F |
| CCCC(NC(=O)[C@@H]1C[C@@]2(CN1C(=O)[C@@H](NC(=O)[C@@H](NC(=O)C1CCN1C(C)(C)C)C1CCCCC1)C(C)(C)C)C(C)(C)C21CCC1)C(=O)C(=O)NC1CC1 (stereo partly shown) [Compound A-64] | 710 (≈ 545 µg/mL) | < 85 | 904 | 274 | – |
| CCC[C@H](NC(=O)[C@@H]1C[C@@]2(CN1C(=O)[C@@H](NC(=O)[C@@H](NC(=O)[C@@H]1CCCN(C)C1)C(C)(C)C)C1CCCCC1)C(C)(C)C21CCC1)C(=O)C(=O)NC1CC1 [Compound A-66] | 840 (≈ 633 µg/mL) | 600 (≈ 452 µg/mL) | – | – | – |
| CCC[C@H](NC(=O)[C@@H]1C[C@@]2(CN1C(=O)[C@@H](NC(=O)[C@@H](NC(=O)[C@H]1CCCN(C)C1)C(C)(C)C)C1CCCCC1)C(C)(C)C21CCC1)C(=O)C(=O)NC1CC1 [Compound A-67] | 740 (≈ 557 µg/mL) | 690 (≈ 520 µg/mL) | – | – | – |
| CCC[C@H](NC(=O)[C@@H]1C[C@@]2(CN1C(=O)[C@@H](NC(=O)[C@@H](NC(=O)[C@H]1CCCCN1CC)C(C)(C)C)C(C)(C)C)C(C)(C)C21CCC1)C(=O)C(=O)NC1CC1 [Compound A-72] | 840 (≈ 622 µg/mL) | 340 (≈ 252 µg/mL) | – | – | – |
| CCC[C@H](NC(=O)[C@@H]1C[C@@]2(CN1C(=O)[C@@H](NC(=O)[C@@H](NC(=O)[C@@H]1CCN1C(C)C)C(C)(C)C)C(C)(C)C)C(C)(C)C21CCC1)C(=O)C(=O)NC1CC1 [Compound A-73] | 810 (≈ 589 µg/mL) | < 5 | – | – | – |
| CCC[C@H](NC(=O)[C@@H]1C[C@@]2(CN1C(=O)[C@@H](NC(=O)[C@@H](NC(=O)[C@@H]1CCCCN1C(C)C)C(C)(C)C)C(C)(C)C)C(C)(C)C21CCC1)C(=O)C(=O)NC1CCC1 [Compound A-82] | 830 (≈ 638 µg/mL) | < 5 | – | – | – |
| NC(=O)c1ncn([C@@H]2O[C@H](CO)[C@@H](O)[C@H]2O)n1 [Ribavirin, 1-β-D-ribofuranosyl-1-1,2,4-triazole-3-caroxamide] | – | – | – | – | patients in whom serum amino transferase levels are reduced to normal (HCV): 40% |
